Laboratory results reported in ChEMBL document CHEMBL1201862, “PubChem BioAssay data set” (2004).
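Protocol summary: plate cells (96-well), add compound at 5 concentrations, incubate 48 h, interpolate endpoints linearly. The concentration for 50% growth inhibition is given as GI50.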 Active and inactive are the calls of the source. No stated cut-off is given here; in the data, active = GI50 up to about 1.1 µM and inactive = higher.

Key:
Experiment in all cases: NCI anticancer screen, dose series, 48 h
OVCAR-4 = system: OVCAR-4
MOLT-4 = system: MOLT-4
OVCAR-8 = system: OVCAR-8
SF-295 = system: SF-295
IGROV-1 = system: IGROV-1
NCI-H23 = system: NCI-H23
SK-MEL-28 = system: SK-MEL-28
UACC-257 = system: UACC-257
RXF 393 = system: RXF 393
HL-60 = system: HL-60
NCI-H460 = system: NCI-H460
HCC 2998 = system: HCC 2998
SK-OV-3 = system: SK-OV-3
MCF7 = system: MCF7
COLO 205 = system: COLO 205
SW-620 = system: SW-620
HT-29 = system: HT-29
RPMI-8226 = system: RPMI-8226
M14 = system: M14
CAKI-1 = system: CAKI-1

Structure (SMILES) | GI50 (OVCAR-4) | GI50 (MOLT-4) | GI50 (OVCAR-8) | GI50 (SF-295) | GI50 (IGROV-1) | GI50 (NCI-H23) | GI50 (SK-MEL-28) | GI50 (UACC-257) | GI50 (RXF 393) | GI50 (HL-60) | GI50 (NCI-H460) | GI50 (HCC 2998) | GI50 (SK-OV-3) | GI50 (MCF7) | GI50 (COLO 205) | GI50 (SW-620) | GI50 (HT-29) | GI50 (RPMI-8226) | GI50 (M14) | GI50 (CAKI-1)
Cc1ccc2nc3c(C(=O)NCCN(C)C)cccc3cc2c1 | 3.03 µM (inactive) | 0.49 µM (active) | 1.5 µM (inactive) | 1.95 µM (inactive) | 2.23 µM (inactive) | 1.84 µM (inactive) | 2.51 µM (inactive) | 2.09 µM (inactive) | 2.02 µM (inactive) | 1.23 µM (inactive) | 0.438 µM (active) | 3.8 µM (inactive) | 2.39 µM (inactive) | 2.81 µM (inactive) | 1.02 µM (active) | 1.39 µM (inactive) | 1.14 µM (inactive) | 1.58 µM (inactive) | – | –
CN1C2CC(=O)CC1[C@H](O)[C@@H]2O | – | > 100 µM (inactive) | > 100 µM (inactive) | > 100 µM (inactive) | – | > 100 µM (inactive) | > 100 µM (inactive) | > 100 µM (inactive) | > 100 µM (inactive) | > 100 µM (inactive) | > 100 µM (inactive) | > 100 µM (inactive) | – | > 100 µM (inactive) | > 100 µM (inactive) | > 100 µM (inactive) | > 100 µM (inactive) | > 100 µM (inactive) | > 100 µM (inactive) | –
COc1cc2c(cc1OC)C(=O)/C(=C/c1cc(OC)c(OC)c(OC)c1)C2 | > 100 µM (inactive) | > 100 µM (inactive) | > 100 µM (inactive) | > 100 µM (inactive) | > 100 µM (inactive) | > 100 µM (inactive) | > 100 µM (inactive) | – | > 100 µM (inactive) | > 100 µM (inactive) | > 100 µM (inactive) | – | > 100 µM (inactive) | > 100 µM (inactive) | > 100 µM (inactive) | – | > 100 µM (inactive) | > 100 µM (inactive) | 96.6 µM (inactive) | > 100 µM (inactive)
COC(=O)C(NC(=O)c1ccccc1)C(c1ccc(Cl)cc1)P(=O)(OC)OC (configuration not stated) | > 100 µM (inactive) | > 100 µM (inactive) | > 100 µM (inactive) | 97.5 µM (inactive) | > 100 µM (inactive) | 91.4 µM (inactive) | > 100 µM (inactive) | > 100 µM (inactive) | 33.9 µM (inactive) | > 100 µM (inactive) | > 100 µM (inactive) | > 100 µM (inactive) | > 100 µM (inactive) | – | > 100 µM (inactive) | > 100 µM (inactive) | > 100 µM (inactive) | > 100 µM (inactive) | > 100 µM (inactive) | > 100 µM (inactive)
CC(=O)O[C@H]1CC[C@H]2[C@@H]3CC[C@H]4Nc5c(cnn5S(C)(=O)=O)C[C@]4(C)[C@H]3CC[C@]12C | 18.5 µM (inactive) | 47.9 µM (inactive) | 45.4 µM (inactive) | 46.8 µM (inactive) | > 100 µM (inactive) | > 100 µM (inactive) | 48.2 µM (inactive) | – | > 100 µM (inactive) | > 100 µM (inactive) | 68.2 µM (inactive) | 56.4 µM (inactive) | 77.6 µM (inactive) | 28.6 µM (inactive) | > 100 µM (inactive) | – | 48.5 µM (inactive) | > 100 µM (inactive) | 91.4 µM (inactive) | 38.1 µM (inactive)
O=S1(=O)C[C@@H](NCc2ccccc2)[C@H](NCc2ccccc2)C1 | > 100 µM (inactive) | > 100 µM (inactive) | > 100 µM (inactive) | > 100 µM (inactive) | 26.2 µM (inactive) | > 100 µM (inactive) | > 100 µM (inactive) | > 100 µM (inactive) | > 100 µM (inactive) | – | > 100 µM (inactive) | > 100 µM (inactive) | > 100 µM (inactive) | > 100 µM (inactive) | > 100 µM (inactive) | > 100 µM (inactive) | > 100 µM (inactive) | > 100 µM (inactive) | 53.5 µM (inactive) | > 100 µM (inactive)
COc1ccc2c3c1O[C@H]1C[C@@H](O)C=C[C@@]31CCN(C)C2 [GALANTAMINE] | > 150 µM (inactive) | > 150 µM (inactive) | 23.8 µM (inactive) | > 150 µM (inactive) | > 150 µM (inactive) | > 150 µM (inactive) | > 150 µM (inactive) | > 150 µM (inactive) | > 150 µM (inactive) | 141 µM (inactive) | > 150 µM (inactive) | > 150 µM (inactive) | > 150 µM (inactive) | > 36 µM (inactive) | > 150 µM (inactive) | > 150 µM (inactive) | > 150 µM (inactive) | > 150 µM (inactive) | – | 114 µM (inactive)
CN1C2CCC1C(CO)C(=O)C2 (configuration not stated) | > 100 µM (inactive) | 18.2 µM (inactive) | 50.9 µM (inactive) | > 100 µM (inactive) | > 100 µM (inactive) | > 100 µM (inactive) | > 100 µM (inactive) | 85.1 µM (inactive) | 57.4 µM (inactive) | 3.56 µM (inactive) | > 100 µM (inactive) | > 100 µM (inactive) | > 100 µM (inactive) | 22.6 µM (inactive) | 17.6 µM (inactive) | 20.4 µM (inactive) | – | 21.3 µM (inactive) | – | 32.7 µM (inactive)
CC1OC1C(=O)C1(O)C(C)C(O)C23OC2(C(O)c2c(O)cccc2C3=O)C1O (configuration not stated) [CERVICARCIN] | 0.032 µM (active) | 0.0415 µM (active) | 0.172 µM (active) | 0.226 µM (active) | 0.219 µM (active) | 0.0938 µM (active) | 0.182 µM (active) | 0.1 µM (active) | 0.191 µM (active) | 0.152 µM (active) | 0.118 µM (active) | 0.1 µM (active) | 0.111 µM (active) | 0.228 µM (active) | 0.0706 µM (active) | 0.078 µM (active) | 0.173 µM (active) | 0.0847 µM (active) | – | 0.0497 µM (active)
O=C1CN2C(Cl)(Cl)C2(c2ccccc2)c2cc(Cl)ccc2N1CC(F)(F)F (configuration not stated) | 18.5 µM (inactive) | 19.1 µM (inactive) | 33.4 µM (inactive) | 18.5 µM (inactive) | 26.8 µM (inactive) | 26.2 µM (inactive) | 22.6 µM (inactive) | 19.6 µM (inactive) | 21.9 µM (inactive) | > 10 µM (inactive) | 16.1 µM (inactive) | 16.6 µM (inactive) | 51.2 µM (inactive) | – | 19.5 µM (inactive) | 39.4 µM (inactive) | 18.4 µM (inactive) | 32.4 µM (inactive) | 24 µM (inactive) | 49.3 µM (inactive)
